Measured values: patent US20070048812A1, “Cell-based luminogenic and nonluminogenic proteasome assays” (priority 2005, published 2007)

Experiments:
[1] = test system: U266 cells; assay: Toxicity of proteasome inhibitor incubation to cells; format: cell-based
[2] = test system: proteasome activities in Jurkat cells; assay: Cell-based luminescent proteasome assay in Jurkat cells; conditions: 1.5 hours inhibitor exposure
Protocol: FIG. 3. Luminescence versus proteasome inhibitor concentration in Jurkat cells. Jurkatt cells were exposed to inhibitor (AdaAhxL3VS) for 1.5 hours and then contacted with LLVY-aminoluciferin (final concentration of 10 μM; SEQ ID NO:1).
NCI-H226 cells (ATCC #CRL-5826) were maintained as an attached line using RPMI 1640 (Sigma #R-8005) with 10% fetal bovine serum (Hyclone # SH30070) and passaged as needed. Jurkat, HL-60 and U937 suspension cell lines were likewise maintained and passaged. To prepare cells for a cell-based proteasome assay, adherent cells were harvested from the parent flask by removing medium, rinsing the flask with D-PBS and incubated with trypsin-EDTA (Sigma T-4040) for 3 to 4 minutes at 37° C. The trypsin reaction was stopped by adding complete medium containing serum, and cells were then centrifuged 4 minutes at 200×G. The cell pellet was suspended in fresh medium, cells counted by trypan blue exclusion and adjusted to 1.11×10^5 cells/ml. […]
For instance, one vial of V859A (Luciferin Detection Reagent) is suspended with 10 ml of buffer to which 50 to 100 μl of substrate is added, and 100 μl of cells are combined with 100 μl of substrate containing reagent. […] This pre-incubation depletes the free aminoluciferin present in the substrate, thereby reducing potential background luminescence. […]

[3] = molecular target: proteasomes (Homo sapiens, UniProt P28074); assay: Lactacystin activity on proteasomes, LLVY-aminoluciferin luminescence with DTT; format: biochemical; conditions: at 20 μM, with DTT included (FIG. 2A)
Protocol: (§1) After a 0.5 hour preincubation in 25 mM HEPES/0.5 mM EDTA/1 mM DTT, a 2×reagent was added (20 μM LLVY-aminoluciferin (SEQ ID NO:1)/3 mM CaCL2/10 mM MgSO4).

[4] = molecular target: T1, calpain I (Homo sapiens, UniProt P07384); assay: Lactacystin activity on purified calpain, LLVY-aminoluciferin luminescence; format: biochemical; conditions: 0.5 hour preincubation, calcium present (FIG. 2A)
T1 sequence (P07384 1-714): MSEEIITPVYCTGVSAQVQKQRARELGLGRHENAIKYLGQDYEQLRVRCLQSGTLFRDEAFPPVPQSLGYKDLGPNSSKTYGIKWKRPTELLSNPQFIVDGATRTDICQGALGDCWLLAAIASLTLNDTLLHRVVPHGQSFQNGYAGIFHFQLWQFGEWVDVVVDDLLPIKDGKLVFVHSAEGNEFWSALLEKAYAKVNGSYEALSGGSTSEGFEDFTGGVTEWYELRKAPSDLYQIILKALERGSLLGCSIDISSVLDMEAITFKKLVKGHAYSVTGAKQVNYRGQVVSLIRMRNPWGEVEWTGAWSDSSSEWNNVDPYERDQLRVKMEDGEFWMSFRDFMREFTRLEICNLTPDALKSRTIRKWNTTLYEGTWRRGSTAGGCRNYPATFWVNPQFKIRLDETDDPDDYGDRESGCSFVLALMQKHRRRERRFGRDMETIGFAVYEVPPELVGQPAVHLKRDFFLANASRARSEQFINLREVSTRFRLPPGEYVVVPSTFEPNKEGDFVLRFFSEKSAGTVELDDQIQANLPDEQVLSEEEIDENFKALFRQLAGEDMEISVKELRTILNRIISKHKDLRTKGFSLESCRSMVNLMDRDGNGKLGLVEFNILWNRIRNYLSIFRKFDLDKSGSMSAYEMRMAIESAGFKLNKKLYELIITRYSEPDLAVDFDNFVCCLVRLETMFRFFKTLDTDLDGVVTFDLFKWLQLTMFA
T1 sequence (P04632 1-268 partner): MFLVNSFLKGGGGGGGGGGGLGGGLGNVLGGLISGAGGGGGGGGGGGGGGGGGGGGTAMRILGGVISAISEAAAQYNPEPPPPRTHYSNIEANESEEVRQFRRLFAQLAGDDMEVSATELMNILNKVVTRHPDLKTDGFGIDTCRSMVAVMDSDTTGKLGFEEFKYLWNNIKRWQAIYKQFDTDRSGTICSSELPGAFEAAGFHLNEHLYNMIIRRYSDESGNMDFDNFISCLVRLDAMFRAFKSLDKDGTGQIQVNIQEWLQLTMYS
Protocol: as §1

[5] = test system: U937 cells; assay: ATP content (viability), CellTiter-Glo; format: cell-based; conditions: 1.5 hours treatment, concentrations tested
Source text: (§2) Cell viability measurements were made using CellTiter Glo (Promega Corp.) in a parallel series of samples to confirm that viability was not affected by lactacystin treatment.

[6] = test system: HL-60 cells; assay: ATP content (viability), CellTiter-Glo; format: cell-based; conditions: 1.5 hours treatment, concentrations tested
Source text: as §2

inhibition of the proteasome [3]	effect on calpain I [4]	SMILES	toxicity to the cells, short incubations ([1]; incubation for 1 to 2 hours)	toxicity to the cells, longer incubation times ([1]; longer incubation times)	chymotrypsin-like, trypsin-like and caspase-like proteasome activities [2]	cell viability (ATP assay, CellTiterGlo) [5]	cell viability (ATP assay, CellTiterGlo) [6]
		CC(C)CC(C=CS(C)(=O)=O)NC(=O)[C@H](CC(C)C)NC(=O)[C@H](CC(C)C)NC(=O)CCCCCNC(=O)CCCCCNC(=O)CCCCCNC(=O)CC12CC3CC(CC(C3)C1)C2 (stereo partly shown) [AdaAhx3L3VS, adamantane-acetyl-(6-aminohexanoyl)3-(leucinyl)3-vinyl-(methyl)-sulfone]	not toxic	induced apoptosis	blocked all three activities		
incomplete inhibition	minimal effect	CC(=O)N[C@@H](CSC(=O)[C@]1([C@@H](O)C(C)C)NC(=O)[C@H](C)[C@@H]1O)C(=O)O [lactacystin]				did not kill the cells	did not kill the cells
